Key:
[1] = test system: commissural interneuron axons in developing Xenopus embryos; assay: Commissural interneuron axon midline guidance in developing spinal cord (3A10 immunostaining); format: in vivo
Procedure: Xenopus embryo injection and cell culture. Blastomere injections of morpholino oligos or mRNAs encoding TRPC1, FKBP52 or their mutant forms into early stages of Xenopus embryos and culturing of spinal neurons from these injected embryos were performed as previously described (Shim et al., Nat Neurosci 8:730-5, 2005). Specifically, fertilized embryos were injected at the one- or two-cell stage, with a mixture of the morpholino (10 ng/embryo) or mRNA (2-3 ng/embryo), and a lineage tracer. The following DNA constructs were subcloned into the pCS2 vector and used for in vitro transcription with the mMESSAGE mMACHINE SP6 kit (Ambion): Myc-FKBP52-WT, Myc-FKBP52-FD67DV, HA-TRPC1-WT, HA-TRPC1-P645L, HA-TRPC1-P645A, GFP-XTRP C1. A morpholino oligo directed against Xenopus DCC (XDCC-MO) was designed with the following sequence: 5′ […] 3′. Injected embryos at stage 22 were used for cultures of spinal neurons as previous described (Shim et al., Nat Neurosci 8:730-5, 2005).
Whole-mount immunocytochemistry and confocal imaging. Embryos at stage 23-28 were fixed and processed for immunocytochemistry as previously described (Shim et al., Nat Neurosci 8:730-5, 2005; and Gomez et al., Nature 397:350-5, 1999). […] Statistical significance was assessed using the Bootstrap test and accepted if p <0.01.

[2] = test system: growth cones of Xenopus spinal neurons; assay: Ca2+ imaging of growth cones of cultured spinal neurons (netrin-1-induced Ca2+ rise); format: cell-based
Procedure: Ca^2+ imaging of cultured spinal neurons. Ca^2+ imaging of growth cones of Xenopus spinal neurons was carried out as previously described (Ming et al., Nature 417:411-8, 2002; and Ming et al., Neuron 19:1225-35, 1997). Specifically, isolated Xenopus spinal neurons were loaded with Fluo-4 AM (2 μM, Molecular Probes) in the culture media without serum for 30 min at room temperature, and rinsed with the media for growth cone turning assay. Ca^2+ imaging was performed using a Zeiss 510 META system equipped with a 20× objective (NA 0.8). Excitation was at 488 nm by argon laser and the emitted fluorescence was collected at […]. Fluorescence and bright-field images were simultaneously acquired at every 30 seconds with a frame scan. The fluorescence intensity of each time point was measured over a fixed rectangular region of interest that covers the entire growth cone and normalized to the average fluorescence intensity that was measured during a 5 min baseline period (prior to netrin-1 application).

[3] = test system: TRPC1 binding to GST-Homer; assay: GST-Homer pull-down of TRPC1 from lysates of treated HEK293 cells; format: cell-based, human; details: HEK293 cells transfected with HA-TRPC1 and FKBP52, GPI-1046 1 nM, 100 nM, 500 nM, 1 μM for 30 min
Procedure: GST pull-down, Co-IP and immunocytochemistry. Protein binding assays were done as previously described (Yuan et al., Cell 114:777-89, 2003). Transfected cells were harvested and lysed using 500 μl of binding buffer (1×PBS buffer containing 1 mM NaVO3, 10 mM NaPyrophosphate, 50 mM NaF [pH 7.4], and 1% Triton X-100). The cell extracts were sonicated, and insoluble material was spun down at 30,000 g for 20 min. For GST pull-down, GST-H3 EVH was expressed in BL21 bacterial cells by growing a 400 ml culture at 37 C until […] was 0.4-0.6. Cells were induced with […] IPTG for an additional hour, harvested, lysed in […] of 1% Triton X-100 in 1×PBS+[…] PMSF, sonicated 3×10 strokes, and spun down at 12,000 g for 5 min. The supernatant was mixed 1:1 with a slurry of GST-agarose beads (Sigma) for 30 min at 4 C. Beads were washed 2 times with 1% Triton X-100 in 1×PBS and 2 times with 1×PBS. 50 μl of 1:1 slurry of GST-H3 EVH beads were used per 100 μl cell extract and rocked for 2 hr at 4° C. For co-IP experiments, 1 μg of purified antibody or 2 μl of crude antiserum was added to 100 μl of cell extract and incubated for 1 hr at 4° C. Then, 1:1 slurry of protein A or G SEPHAROSE 4B beads were added to the antibody-extract mix and incubated for an additional hour at 4° C. […]

FKBPs = details: Steiner et al., PNAS 94:2019-24, 1997; cited from earlier work
[4] = test system: growth cones of Xenopus spinal neurons; assay: Growth cone turning assay in a netrin-1 gradient; format: cell-based; details: for growth cone turning response in a GPI-1046 gradient: GPI-1046 100 μM in the pipette
Procedure: Growth cone turning assay. Microscopic gradients of netrin-1 (5 μg/ml in the pipette), MAG (150 μg/ml in the pipette) and GPI-1046 (100 μM in the pipette) were produced as previously described (Lohof et al., J Neurosci 12:1253-61, 1992; and Zheng et al., Nature 368:140-4, 1994). […] Xenopus spinal neurons were used 14 to 20 hrs after plating and neurons with the lineage-tracer were identified under fluorescent microscope and used for turning assay at room temperature as previously described (Ming et al., Nature 417:411-8, 2002; Ming et al., Neuron 19:1225-35, 1997; Lohof et al., J Neurosci 12:1253-61, 1992; and Zheng et al., Nature 368:140-4, 1994). GFP^+ hippocampal neurons were used 48-72 hours after plating and individual axon was identified for turning assay at the room temperature. The turning angle was defined by the angle between the original direction of neurite extension and a straight line connecting the positions of the center of the growth cone at the onset and the end of the 30 min period. The rates of neurite extension were calculated based on the net neurite extension during the turning assay. Only those growth cones of isolated neurons with a net neurite extension >5 μm over the 30-min period were included for analysis. Statistical significance was assessed using the Kolmogorov-Smirnov test.

calcineurin = details: Steiner et al., PNAS 94:2019-24, 1997; cited from earlier work
[5] = test system: axonal growth cones of rat hippocampal neurons; assay: Growth cone turning assay in a MAG gradient; format: cell-based; details: MAG 150 μg/ml in the pipette
Procedure: Primary hippocampal neuronal cultures and transfection. Hippocampal neurons were isolated from postnatal rats (P3-P5) and were cultured on poly-L-lysine coated coverslips as previously described (Song et al., Nature 417:39-44, 2002). These neurons were transfected with the AMAXA transfection system following protocols from the manufacturer. Briefly, hippocampal neurons were isolated and 100 μl of nucleofector solution was added to resuspend the cell pellet. Different expression constructs (1-5 μg), GFP, FKBP52-FD67DV, TRPC1-P645A or a combination of TRPC1-P645A and FKBP52-WT, were added to the cell suspension and then transferred to cuvettes for electroporation. The cells were cultured in DMEM with 10% fetal bovine serum for 24 hrs before changing to serum-free neurobasal medium (Song et al., Nature 417:39-44, 2002). Growth cone turning assay. Microscopic gradients of netrin-1 (5 μg/ml in the pipette), MAG (150 μg/ml in the pipette) and GPI-1046 (100 μM in the pipette) were produced as previously described (Lohof et al., J Neurosci 12:1253-61, 1992; and Zheng et al., Nature 368:140-4, 1994). […] The rates of neurite extension were calculated based on the net neurite extension during the turning assay. […] Statistical significance was assessed using the Kolmogorov-Smirnov test.

XDCC-MO: morpholino oligo directed against Xenopus DCC, 5′ CCAAGACAATTCTCCATATTTCAGC 3′ (all phosphorodiamidate morpholino (PMO))
commissural interneuron axon midline guidance ([1]; morpholino injected at the one-cell stage, stage 25 embryos): failed to reach the midline | netrin-1-induced Ca2+ rise in growth cones ([2]; neurons from embryos injected with morpholino (10 ng/embryo)): abolished netrin-1-induced Ca^2+ rise

CCC(C)(C)C(=O)C(=O)N1CCC[C@H]1C(=O)OCCCc1cccnc1 [GPI-1046, 3-(3-pyridyl)-1-propyl (2S)-1-(3,3-dimethyl-1,2-dioxopentyl)-2-pyrrolidinecarboxylate]
TRPC1 binding to GST-Homer [3]: increased TRPC1 binding to GST-Homer | commissural interneuron axon midline guidance ([1]; 0.5 μM applied to Xenopus embryos between stage 22-25): significant guidance defects | inhibition of FKBP isomerase activity (FKBPs): inhibits their isomerase activity | netrin-1-induced Ca2+ rise in growth cones ([2]; Xenopus spinal neurons, Fluo-4, netrin-1 5 ng/ml, GPI-1046 100 nM in bath): abolished netrin-1-induced Ca^2+ rise | growth cone turning response in a GPI-1046 gradient ([4]; uniform netrin-1 10 ng/ml in the bath): significant repulsive turning responses | growth cone turning response in a GPI-1046 gradient ([4]; without uniform netrin-1 stimulation): no bias in the direction of growth cone extension | growth cone turning response in a netrin-1 gradient ([4]; netrin-1 5 μg/ml in the pipette, bath application of 100 nM, 30 min): blocked netrin-1-induced attraction | inhibition of calcineurin (calcineurin): does not inhibit calcineurin | MAG-induced growth cone repulsion [5]: abolished MAG-induced repulsion

From patent US20110171230A1, “Method of Identifying Agents that Promote Axonal Development” (The Johns Hopkins University, priority 2008, published 2011)
